Assay results: patent US4478828A, “Nonapeptide having immunostimulative activity, process for the preparation thereof, and its use” (Hoechst Aktiengesellschaft, priority 1982, dated 1984)
Square brackets hold non-standard residues; d marks the D form. Peptide text beside a SMILES is read from it. pGlu = O=C1CC[C@@H](C(=O)O)N1

Key:
lymphocytes = experiment: phythemagglutinin stimulation test (PHA test), 3H-thymidine incorporation; type: cell-based; conditions: for Stimulation index SI / Incorporation of 3H-thymidine: 20 μg PHA/ml, 72 hours; for Incorporation of 3H-thymidine: control 114 311
Description: (§1) The nonapeptide of the invention was tested in the Plaqueforming Cell Assay (PFC test) and in the phythemagglutinin stimulation test (PHA test) for its lymphocyte-stimulative action.
The PHA test allows conclusions on the amount of mature, that is, stimulable, lymphocytes by means of the function test on stimulability with the phytolectin PHA. The lectin, like bacterial or viral antigens, incites the lymphocytes to a blast transformation. It causesd proliferation either directly or by induction of lymphokine secretion.
The incorporation of radioactive thymidine within a defined period of time is then the measure for the number of stimulated cells. The mature or immunologically potent T cells only are stimulated. Thus, the influence of a substance on the maturation of lymphocytes can be observed by means of this test. However, stimulation must remain below the optimum; for, at a higher concentration other subpopulations of lymphocytes are stimulated, too, and the effect cannot be observed any longer. The peptide of the invention was added to the culture medium in varying concentrations.

[1] = toxic effects on administration (general statement)
spleen cells of mice = experiment: Plaqueforming Cell Assay (PFC test), in vitro immunization with sheep erythrocytes; type: cell-based; conditions: for Plaques/10^6 cells: added daily, 5 days, control 768
Description: as §1
In the PFC test, cell cultures of freshly dissected spleens of mice (2×10^7 spleen cells per ml) were prepared in RPMI 1640 and 30 μl of fetal calf serum (FCS) per ml of cell culture. In vitro immunization is carried out with 5×10^7 sheep erythrocytes/ml. The test cell cultures are incubated daily with the corresponding dose of the test substance. After a test period of 5 days, the cells are centrifuged off, washed with RPMI 1640 medium, and the direct PCF test is carried out as follows: The cells are mixed in an agarose solution with a 10% sheep erythrocyte suspension, and poured onto a plane surface. In the gel layer so formed the stimulated lymphocytes set free antibodies in the subsequent incubation which diffuse in the environment and adhere to the sheep erythrocytes present in these places. After addition of guinea pig complement the red blood cells lyse. Light-colored, circular spots are formed in the reddish-brown gel, which can be discerned with a naked eye, and which are the hemolysis halos of the plaques. In the center of such hemoylsis halos there is an antibody-producing cell. The number of lymphoid cells which form specific immunoglobulins can therefore be equalized with the plaque values found.

In the case of `C[C@@H](O)[C@H](NC(=O)[C@H](CO)NC(=O)[C@H](CO)NC(=O)[C@H](CO)NC(=O)[C@H](CC(=O)O)NC(=O)[C@@H]1CCC(=O)N1)C(=O)NCC(=O)N[C@@H](Cc1c[nH]c2ccccc12)C(=O)N[C@@H](CC(N)=O)C(=O)O` [nonapeptide, L-pyroglutamyl-L-aspartyl-L-seryl-L-seryl-L-seryl-L-threonyl-glycyl-L-tryptophyl-L-asparagine] ([pGlu]DSSSTGWN-OH), the “Stimulation index SI” value (lymphocytes; 0.0125 μg/ml nonapeptide) is reported as 0.89, the “Incorporation of 3H-thymidine” value (lymphocytes; 0.0125 μg/ml nonapeptide) is reported as 101 594 cpm and the “Stimulation index SI” value (lymphocytes; 0.125 μg/ml nonapeptide) is reported as 1.20. The “Incorporation of 3H-thymidine” value (lymphocytes; 0.125 μg/ml nonapeptide) was 137 519 cpm, the “Stimulation index SI” value (lymphocytes; 0.5 μg/ml nonapeptide) was 1.26 and the “Incorporation of 3H-thymidine” value (lymphocytes; 0.5 μg/ml nonapeptide) was 143 831 cpm. For the same compound, the “Stimulation index SI” value (lymphocytes; 1.0 μg/ml nonapeptide) was 1.00, the “Incorporation of 3H-thymidine” value (lymphocytes; 1.0 μg/ml nonapeptide) was 113 978 cpm and the “Stimulation index SI” value (lymphocytes; 5.0 μg/ml nonapeptide) was 0.94. The “Incorporation of 3H-thymidine” value (lymphocytes; 5.0 μg/ml nonapeptide) was 107 670 cpm, the “stimulation of the lymphocytes depending on the dose” value (lymphocytes; PHA test, in words) was “bell-shaped curve” and the toxic effects [1] was “toxic effects have not been observed hitherto”. For the same compound, the “Plaques/10^6 cells” value (spleen cells of mice; 1 ng/ml nonapeptide) was 908 Plaques/10^6 cells, the “Plaques/10^6 cells” value (spleen cells of mice; 10 ng/ml nonapeptide) was 1112 Plaques/10^6 cells and the “Plaques/10^6 cells” value (spleen cells of mice; 100 ng/ml nonapeptide) was 1024 Plaques/10^6 cells. The “Plaques/10^6 cells” value (spleen cells of mice; 1 μg/ml nonapeptide) was 817 Plaques/10^6 cells, the “Plaques/10^6 cells” value (spleen cells of mice; 5 μg/ml nonapeptide) was 802 Plaques/10^6 cells and the “stimulation of the lymphocytes depending on the dose” value (spleen cells of mice; PFC test, in words) was “bell-shaped curve”.
